In patent publication US12060349B2, “Glucosylceramide synthase inhibitors” (Genzyme Corporation, priority 2012, dated 2024) one finds IC50 data, which are given here for 17 compounds.

The structures appear in SMILES notation. Read-outs that look alike come from different tables or passages of the source.

The subject of one experiment is B16 mouse melanoma cells. As to the kind of experiment: cell viability in the B16 cell-based assay (Viability, B16 IC50). Conditions: concentration causing 50% cell death, values greater than 10 represent a lack of cell death, read-out: Viability, B16 IC50. As to the method: (§1) The cell based assay was performed in two different cell types, B16 and C32. Cell viability was also assessed in the second, cell-based assay.
(§2) The “Compound Number” in the table corresponds to the compound disclosed in the Example of the same number. […] The results of the cell based assays (performed in two different cell systems, i.e. B16 mouse melanoma or C32 human melanoma cells) are expressed as “GM3 B16 IC50” or “GM3 C32 IC50” for the B16 assay and the C32 assay, respectively. […] The results of the viability assays are expressed as “Viability, B16 IC50” or “Viability, C32 IC50”, respectively. These values represent the concentration of the compound causing 50% cell death. Values greater than 10 represent a lack of cell death.

For experiment [1], the target named is T1, glucosylceramide synthase (Homo sapiens, UniProt Q16739).
T1 construct: Microsomes were isolated from A375 human melanoma cells; endogenous in cells; host or cells: A375 human melanoma cells (microsomal fraction, 100,000 g pellet)
T1 sequence (Q16739 1-394): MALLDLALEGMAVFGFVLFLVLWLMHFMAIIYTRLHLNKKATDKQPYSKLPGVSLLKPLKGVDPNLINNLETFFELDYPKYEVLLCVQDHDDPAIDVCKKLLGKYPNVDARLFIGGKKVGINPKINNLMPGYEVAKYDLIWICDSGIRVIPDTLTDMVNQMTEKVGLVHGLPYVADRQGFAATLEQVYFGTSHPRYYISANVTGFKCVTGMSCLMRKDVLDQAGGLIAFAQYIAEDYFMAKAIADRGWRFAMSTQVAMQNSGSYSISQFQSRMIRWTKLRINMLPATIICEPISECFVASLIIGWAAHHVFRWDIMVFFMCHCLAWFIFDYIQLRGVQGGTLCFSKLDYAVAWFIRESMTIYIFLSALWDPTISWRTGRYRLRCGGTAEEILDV
The experiment is described as follows: microsomal assay measuring conversion of ceramide to glucosylceramide by HPLC (GCS IC50). The class given is biochemical. Conditions: concentration causing 50% inhibition of glucosylceramide synthase activity. As for the experimental part:
Inhibition of glucosylceramide synthase activity for certain compounds of the invention were measured with 1) a microsomal assay that directly measures the conversion of ceramide to glucosylceramide by HPLC and 2) second, cell based, phenotypic assay that monitors cell surface expression of the downstream lipid GM3 by antibody mediated immunofluorescence. The cell based assay was performed in two different cell types, B16 and C32. Cell viability was also assessed in the second, cell-based assay.
The “Compound Number” in the table corresponds to the compound disclosed in the Example of the same number. The results of the microsomal assay are expressed as “GCS IC50”, which represents the concentration of the compound causing 50% inhibition of glucosylceramide synthase activity. The results of the cell based assays (performed in two different cell systems, i.e. B16 mouse melanoma or C32 human melanoma cells) are expressed as “GM3 B16 IC50” or “GM3 C32 IC50” for the B16 assay and the C32 assay, respectively. These values represent the concentration of the compound causing 50% inhibition of GM3 expression on the cell surface. The results of the viability assays are expressed as “Viability, B16 IC50” or “Viability, C32 IC50”, respectively. These values represent the concentration of the compound causing 50% cell death. Values greater than 10 represent a lack of cell death.

For experiment [2], the system named is GM3 expression on the cell surface, C32 human melanoma cells. As to the kind of experiment: cell based phenotypic assay, cell surface GM3 by antibody mediated immunofluorescence, C32 (GM3 C32 IC50). Conditions: 50% inhibition of GM3 expression on the cell surface. As for the experimental part:
as §1, §2

In experiment [3] the test system is GM3 expression on the cell surface, B16 mouse melanoma cells. As to the kind of experiment: cell based phenotypic assay, cell surface GM3 by antibody mediated immunofluorescence, B16 (GM3 B16 IC50). Conditions: 50% inhibition of GM3 expression on the cell surface. As to the method:
as §1, §2

The test system of another experiment is C32 human melanoma cells. As to the kind of experiment: cell viability in the C32 cell-based assay (Viability, C32 IC50). Conditions: concentration causing 50% cell death, values greater than 10 represent a lack of cell death, read-out: Viability, C32 IC50. As for the experimental part:
as §1, §2

Setting [4] is: Homo sapiens, C32 human melanoma cells, read-out: GM3 C32 IC50.
Where [5] appears, read: Mus musculus, B16 mouse melanoma cells, read-out: GM3 B16 IC50.
Where [6] appears, read: Homo sapiens, read-out: GM3 C32 IC50, C32 human melanoma cells.
Setting [7] is: Mus musculus, read-out: GM3 B16 IC50, B16 mouse melanoma cells.

The IC50 is the concentration needed to halve the response being measured. Consider `O=C(NC1CCN2CCC1CC2)N1CCN(c2ccccc2)CC1` (stereo not shown) [Example 8, N-(1-Azabicyclo[3.2.2]nonan-4-yl)-4-phenylpiperazine-1-carboxamide], for which the IC50 with B16 mouse melanoma cells (Mus musculus, B16 cells) is no less than 10 µM; in experiment [1] it was 3.31 µM; in experiment [2] (C32 human melanoma cells, read-out: GM3 C32 IC50) it was 0.518 µM; in experiment [3] (B16 mouse melanoma cells, read-out: GM3 B16 IC50) it was greater than 10 µM; in the experiment with C32 human melanoma cells (Homo sapiens, C32 cells) it was no less than 10 µM.

In the case of `CC1(NC(=O)N2CCN(c3ccccc3)CC2)CN2CCC1CC2` (stereo not shown) [Example 9, N-(3-Methylquinuclidin-3-yl)-4-phenylpiperazine-1-carboxamide], the IC50 in the experiment on B16 mouse melanoma cells (Mus musculus, B16, B16 cells) is no less than 10 µM; in experiment [1], 12.2 µM; in experiment [2] (setting [4]) it was 7.59 µM; in experiment [3] (setting [5]) it was greater than 10 µM; with C32 human melanoma cells (Homo sapiens, C32, C32 cells), no less than 10 µM.

As to `CC1(NC(=O)N2CCN(c3ccccc3)CC2)CCN2CCC1CC2` (stereo not shown) [Example 10, N-(4-Methyl-1-azabicyclo[3.2.2]nonan-4-yl)-4-phenylpiperazine-1-carboxamide], the IC50 in the experiment on B16 mouse melanoma cells (Mus musculus, B16, B16 cells) is no less than 10 µM; in experiment [1] it was 14.7 µM; in experiment [2] (setting [4]), 4.24 µM; in experiment [3] (setting [5]), greater than 10 µM; with C32 human melanoma cells (Homo sapiens, C32, C32 cells) it was no less than 10 µM.

In the case of `O=C(N1CCN(c2ccccc2)CC1)N1CCN2CCC1CC2` [Example 11, 1,4-Diazabicyclo[3.2.2]nonan-4-yl(4-phenylpiperazin-1-yl)methanone], the IC50 in the experiment on B16 mouse melanoma cells (Mus musculus, B16, B16 cells) was no less than 10 µM; in experiment [1], 20.8 µM; in experiment [2] (setting [4]) it was greater than 10 µM; in experiment [3] (setting [5]), greater than 10 µM; with C32 human melanoma cells (Homo sapiens, C32, C32 cells) it was no less than 10 µM.

For `O=C(OC1CN2CCC1CC2)N1CCN(c2ccccc2)CC1` (stereo not shown) [Example 12, Quinuclidin-3-yl 4-phenylpiperazine-1-carboxylate], the IC50 is no less than 10 µM in the experiment on B16 mouse melanoma cells (B16 cells); 12.2 µM in experiment [1]; greater than 10 µM in experiment [2] (setting [6]); greater than 10 µM in experiment [3] (setting [7]); no less than 10 µM with C32 human melanoma cells (C32 cells).

As for `O=C(NC1CN2CCC1CC2)N1CCN(c2cccc(-c3ccccc3)c2)CC1` (stereo not shown) [Example 13, 4-([1,1′-Biphenyl]-3-yl)-N-(quinuclidin-3-yl)piperazine-1-carboxamide], the IC50 in the experiment on B16 mouse melanoma cells (Mus musculus, B16, B16 cells) was 8.59 µM; in experiment [1], 2.47 µM; in experiment [2] (setting [4]), 0.697 µM; in experiment [3] (setting [5]), 6.8 µM; in the experiment on C32 human melanoma cells (Homo sapiens, C32, C32 cells), no less than 10 µM.

On to `O=C(NC1CCN2CCC1CC2)N1CCN(c2cccc(-c3ccccc3)c2)CC1` (stereo not shown) [Example 14, 4-([1,1′-Biphenyl]-3-yl)-N-(1-azabicyclo[3.2.2]nonan-4-yl)piperazine-1-carboxamide], for which the IC50 is 6.79 µM in the experiment with B16 mouse melanoma cells (Mus musculus, B16, B16 cells); 0.705 µM in experiment [1]; 0.108 µM in experiment [2] (setting [4]); 3.39 µM in experiment [3] (setting [5]); no less than 10 µM with C32 human melanoma cells (Homo sapiens, C32, C32 cells).

Take `CC1(NC(=O)N2CCN(c3cccc(-c4ccccc4)c3)CC2)CN2CCC1CC2` (stereo not shown) [Example 15, 4-([1,1′-Biphenyl]-3-yl)-N-(3-methylquinuclidin-3-yl)piperazine-1-carboxamide]: the IC50 with B16 mouse melanoma cells (Mus musculus, B16, B16 cells) was no less than 10 µM; in experiment [1] it was 0.839 µM; in experiment [2] (setting [4]), 0.172 µM; in experiment [3] (setting [5]), 0.368 µM; with C32 human melanoma cells (Homo sapiens, C32, C32 cells), no less than 10 µM.

For `CC1(NC(=O)N2CCN(c3cccc(-c4ccccc4)c3)CC2)CCN2CCC1CC2` (stereo not shown) [Example 16, 4-([1,1′-Biphenyl]-3-yl)-N-(4-methyl-1-azabicyclo[3.2.2]nonan-4-yl)piperazine-1-carboxamide], the IC50 in the experiment with B16 mouse melanoma cells (Mus musculus, B16, B16 cells) is 6.76 µM; in experiment [1] it was 0.0495 µM; in experiment [2] (setting [4]), 0.0124 µM; in experiment [3] (setting [5]), 0.181 µM; with C32 human melanoma cells (Homo sapiens, C32, C32 cells), 1 µM.

As for `O=C(N1CCN(c2cccc(-c3ccccc3)c2)CC1)N1CCN2CCC1CC2` [Example 17, (4-([1,1′-Biphenyl]-3-yl)piperazin-1-yl)(1,4-diazabicyclo[3.2.2]nonan-4-yl)methanone], the IC50 in the experiment on B16 mouse melanoma cells (Mus musculus, B16, B16 cells) was no less than 10 µM; in experiment [1] it was 12.2 µM; in experiment [2] (setting [4]), 6.36 µM; in experiment [3] (setting [5]), 6.31 µM; with C32 human melanoma cells (Homo sapiens, C32, C32 cells) it was no less than 10 µM.

Regarding `O=C(OC1CN2CCC1CC2)N1CCN(c2cccc(-c3ccccc3)c2)CC1` (stereo not shown) [Example 18, Quinuclidin-3-yl 4-([1,1′-biphenyl]-3-yl)piperazine-1-carboxylate], the IC50 in the experiment with B16 mouse melanoma cells (B16 cells) is 8.36 µM; in experiment [1], 0.551 µM; in experiment [2] (setting [6]), 0.563 µM; in experiment [3] (setting [7]), 2.04 µM; with C32 human melanoma cells (C32 cells), no less than 10 µM.

On to `O=C(OC1CCN2CCC1CC2)N1CCN(c2cccc(-c3ccccc3)c2)CC1` (stereo not shown) [Example 19, 1-Azabicyclo[3.2.2]nonan-4-yl 4-([1,1′-biphenyl]-3-yl)piperazine-1-carboxylate], for which the IC50 in the experiment on B16 mouse melanoma cells (Mus musculus, B16, B16 cells) is 7.09 µM; in experiment [1], 2.67 µM; in experiment [2] (setting [4]), 0.456 µM; in experiment [3] (setting [5]), 1.48 µM; in the experiment with C32 human melanoma cells (Homo sapiens, C32, C32 cells), 9.09 µM.

In the case of `O=C(OC1CC2CCN(CC2)C1)N1CCN(c2cccc(-c3ccccc3)c2)CC1` (stereo not shown) [Example 20, 1-Azabicyclo[3.2.2]nonan-3-yl 4-([1,1′-biphenyl]-3-yl)piperazine-1-carboxylate], the IC50 in the experiment on B16 mouse melanoma cells (Mus musculus, B16, B16 cells) is 7.71 µM; in experiment [1], 16.6 µM; in experiment [2] (setting [4]) it was 10.7 µM; in experiment [3] (setting [5]) it was 4.47 µM; in the experiment on C32 human melanoma cells (Homo sapiens, C32, C32 cells), no less than 15.1 µM.

Consider `CCC1(NC(=O)N2CCN(c3cccc(-c4ccccc4)c3)CC2)CN2CCC1CC2` (stereo not shown) [Example 21, 4-([1,1′-Biphenyl]-3-yl)-N-(3-ethylquinuclidin-3-yl)piperazine-1-carboxamide], for which the IC50 was determined as 7.23 µM in the experiment on B16 mouse melanoma cells (Mus musculus, B16, B16 cells); 0.288 µM in experiment [1]; 0.0252 µM in experiment [2] (setting [4]); 0.168 µM in experiment [3] (setting [5]); 3.16 µM in the experiment with C32 human melanoma cells (Homo sapiens, C32, C32 cells).

Take `CCC1(NC(=O)N2CCN(c3cccc(-c4ccc(F)cc4)c3)CC2)CN2CCC1CC2` (stereo not shown) [Example 23, N-(3-Ethylquinuclidin-3-yl)-4-(4′-fluoro-[1,1′-biphenyl]-3-yl)piperazine-1-carboxamide]: the IC50 in the experiment on B16 mouse melanoma cells (Mus musculus, B16, B16 cells) amounted to 7.07 µM; in experiment [1], 1.58 µM; in experiment [2] (setting [4]), 0.0909 µM; in experiment [3] (setting [5]) it was 0.351 µM; in the experiment on C32 human melanoma cells (Homo sapiens, C32, C32 cells), 3.16 µM.

Consider `O=C(OC1CCN2CCC1CC2)N1CCN(c2cccc(-c3ccc(F)cc3)c2)CC1` (stereo not shown) [Example 24, 1-Azabicyclo[3.2.2]nonan-4-yl 4-(4′-fluoro-[1,1′-biphenyl]-3-yl)piperazine-1-carboxylate], for which the IC50 was found to be 3.61 µM with B16 mouse melanoma cells (Mus musculus, B16, B16 cells); 9.52 µM in experiment [1]; 1.08 µM in experiment [2] (setting [4]); 1.68 µM in experiment [3] (setting [5]); 3.98 µM with C32 human melanoma cells (Homo sapiens, C32, C32 cells).

As for `CC1(NC(=O)N2CCN(c3cccc(-c4ncccn4)c3)CC2)CCN2CCC1CC2` (stereo not shown) [Example 26, N-(4-Methyl-1-azabicyclo[3.2.2]nonan-4-yl)-4-(3-(pyrimidin-2-yl)phenyl)piperazine-1-carboxamide], the half-inhibitory concentration (IC50) is no less than 10 µM in the experiment on B16 mouse melanoma cells (Mus musculus, B16, B16 cells); 6.9 µM in experiment [1]; 0.36 µM in experiment [2] (setting [4]); greater than 10 µM in experiment [3] (setting [5]); no less than 10 µM in the experiment with C32 human melanoma cells (Homo sapiens, C32, C32 cells).
